Assay results: patent US10221163B2 (priority 2015, dated 2019)
Read-outs that look alike come from different tables or passages of the source.

Legend:
IMP-1 = IMP-1 (Serratia marcescens, UniProt P52699); assay: biochemical; format: biochemical; conditions: fluorescence assay, CCF2-FA substrate, 2 pM enzyme, 2 hours at 25° C.; read-out: IMP-1 IC50
Summary of the method: (§1)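 Class B activity is measured in the presence of compound by fluorescence with CCF2-FA after a 2-hour incubation at 25° C. IC50 is taken from a 4-parameter fit of semi-logarithmic dose-response data.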

NDM-1 = NDM-1 (Klebsiella pneumoniae, UniProt C7C422); assay: biochemical; format: biochemical; conditions: fluorescence assay, CCF2-FA substrate, 1 pM enzyme, 2 hours at 25° C.; read-out: NDM-1 IC50
Sequence of NDM-1 (C7C422 whole entry, looked up, species assumed): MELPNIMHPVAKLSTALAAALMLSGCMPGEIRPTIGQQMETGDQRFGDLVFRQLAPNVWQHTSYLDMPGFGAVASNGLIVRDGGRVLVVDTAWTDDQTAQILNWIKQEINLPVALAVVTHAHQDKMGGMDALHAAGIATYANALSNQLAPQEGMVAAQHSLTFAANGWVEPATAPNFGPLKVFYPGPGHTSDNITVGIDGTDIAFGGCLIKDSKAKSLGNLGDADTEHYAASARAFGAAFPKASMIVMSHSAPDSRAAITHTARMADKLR
Summary of the method: as §1

VIM-1 = VIM-1 (Pseudomonas aeruginosa (strain ATCC 15692 / DSM 22644 / CIP 104116 / JCM 14847 / LMG 12228 / 1C / PRS 101 / PAO1), UniProt A0A0F7KYQ8); assay: biochemical; conditions: CCF2-FA substrate, 30 pM enzyme, 2 hours at 25° C.
Summary of the method: as §1

[1] = test system: Escherichia coli expressing NDM-1 (CLB30005, CLB30016); format: cell-based; conditions: NDM-1 strain, with imipenem 1 μg/ml, 95% inhibition of growth
Summary of the method: (§2)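 Clinical strains grown overnight on blood agar at 35°C, colonies suspended in saline, diluted 1:100 into 1.1×CAMHB. Test compound titrated with imipenem at 1 μg/ml; incubated 22–24 h at 35°C, growth read by absorbance.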

[2] = test system: Klebsiella pneumoniae expressing VIM-1 (IHMA599644); format: cell-based; conditions: VIM-1 strain IHMA599644, with imipenem 1 μg/ml, 95% inhibition of growth
Summary of the method: as §2

[3] = test system: Serratia marcescens expressing IMP-1 (CL5741); format: cell-based; conditions: IMP-1 strain CL5741, with imipenem 1 μg/ml, 95% inhibition of growth
Summary of the method: as §2

[4] = test system: Pseudomonas aeruginosa efflux+ (MB9798), IMP-1; format: cell-based; parameters: Concentration of metallo-β-lactamase inhibitor which restores susceptibility of efflux + (MB9798) strain to imipenem: unit not given here; conditions: efflux+ MB9798; imipenem at 2 μg/mL; in the presence of a class A, C, D serine β-lactamase inhibitor closely related to relebactam
Summary of the method: (§3)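 Steps: add fixed imipenem and/or ceftazidime (usually CLSI breakpoint) and fixed AmpC-directed class A/C inhibitor to microbroth MIC wells; titrate MBL inhibitor; record concentration regaining susceptibility for each PAO1-derived strain; divide efflux+ by efflux− value.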

[5] = test system: Pseudomonas aeruginosa efflux− (MB9799), IMP-1; format: cell-based; conditions: efflux− MB9799; imipenem at 2 μg/mL; in the presence of a class A, C, D serine β-lactamase inhibitor closely related to relebactam
Summary of the method: as §3

[6] = test system: Pseudomonas aeruginosa MB9798 vs MB9799; conditions: fold difference between efflux+ (MB9798) and efflux− (MB9799) strains; imipenem at 2 μg/mL
Summary of the method: as §3

[7] = fluorescence assay, read-out: VIM-1 IC50

Sequence of IMP-1 (P52699 whole entry, looked up, species assumed): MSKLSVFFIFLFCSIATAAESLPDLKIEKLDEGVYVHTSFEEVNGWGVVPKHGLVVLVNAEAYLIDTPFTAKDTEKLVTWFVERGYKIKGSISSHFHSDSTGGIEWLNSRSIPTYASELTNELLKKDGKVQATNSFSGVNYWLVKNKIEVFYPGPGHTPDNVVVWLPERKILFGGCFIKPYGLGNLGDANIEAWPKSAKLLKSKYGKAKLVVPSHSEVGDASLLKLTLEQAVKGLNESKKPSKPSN

| Structure (SMILES) | IC50 (IMP-1) [nM] | IC50 (NDM-1) [nM] | IC50 (VIM-1; [7]) [nM] | Escherichia coli MITC95 [1] [µM] | Klebsiella pneumoniae MITC95 [2] [µM] | Serratia marcescens MITC95 [3] [µM] | Concentration of metallo-β-lactamase inhibitor which restores susceptibility of efflux + (MB9798) strain to imipenem [4] | Concentration of metallo-β-lactamase inhibitor which restores susceptibility of efflux − (MB9799) strain to imipenem [5] | Efflux ratio [6] | IC50 (VIM-1; VIM-1 IC50, fluorescence assay) [nM] |
| --- | --- | --- | --- | --- | --- | --- | --- | --- | --- | --- |
| NCCNS(=O)(=O)c1ccc(-c2cccc3c2CCCN3)c(-c2nn[nH]n2)c1S(N)(=O)=O [Example 455, N1-(2-Aminoethyl)-4-(1,2,3,4-tetrahydroquinolin-5-yl)-3-(2H-tetrazol-5-yl)benzene-1,2-disulfonamide] | 0.53 | 0.216 | 0.163 | 1.563 | 3.125 | 3.125 | 12.5 | 1.563 | 8.00 |  |
| NCCNc1cc(-c2ccc(S(=O)(=O)NCCN)c(S(N)(=O)=O)c2-c2nn[nH]n2)ccn1 [Example 456, N1-(2-Aminoethyl)-4-(2-((2-aminoethyl)amino)pyridin-4-yl)-3-(2H-tetrazol-5-yl)benzene-1,2-disulfonamide] | 3.77 | 1.56 | 0.545 | 0.7813 | 1.563 | 0.7813 | 1.563 | 0.7813 | 2.00 |  |
| NCCNc1cc(-c2ccc(S(=O)(=O)NCCO)c(S(N)(=O)=O)c2-c2nn[nH]n2)ccn1 [Example 457, 4-(2-((2-aminoethyl)amino)pyridin-4-yl)-N1-(2-hydroxyethyl)-3-(2H-tetrazol-5-yl)benzene-1,2-disulfonamide] | 5.29 | 3.68 | 0.49 | 1.563 | 6.25 | 3.125 | 50 | 1.563 | 31.99 |  |
| NCCNc1cc(-c2ccc(S(=O)(=O)N[C@@H]3CCNC3)c(S(N)(=O)=O)c2-c2nn[nH]n2)ccn1 [Example 458, (R)-4-(2-((2-aminoethyl)amino)pyridin-4-yl)-N1-(pyrrolidin-3-yl)-3-(2H-tetrazol-5-yl)benzene-1,2-disulfonamide] | 3.77 | 0.532 | 0.132 | 0.7813 | 1.563 | 1.563 | 3.125 | 0.7813 | 4.00 |  |
| NCCNc1ncccc1-c1ccc(S(=O)(=O)N[C@@H]2CCNC2)c(S(N)(=O)=O)c1-c1nn[nH]n1 [Example 459, (R)-4-(2-((2-Aminoethyl)amino)pyridin-3-yl)-N1-(pyrrolidin-3-yl)-3-(2H-tetrazol-5-yl)benzene-1,2-disulfonamide] | 12.5 | 1.17 | 0.172 | 0.3906 | 1.563 | 1.563 | 3.125 | 1.563 | 2.00 |  |
| C[C@H](CN)NS(=O)(=O)c1ccc(-c2cccnc2NCCN)c(-c2nn[nH]n2)c1S(N)(=O)=O [Example 460, (R)-4-(2-((2-aminoethyl)amino)pyridin-3 yl)-N1-(1-aminopropan-2-yl)-3-(2H-tetrazol-5-yl)benzene-1,2-disulfonamide] | 4.63 | 0.603 | 0.148 | 0.7813 | 1.563 | 1.563 | 3.125 | 1.563 | 2.00 |  |
| NCCNS(=O)(=O)c1ccc(-c2ccnc(CN)c2)c(-c2nn[nH]n2)c1S(N)(=O)=O [Example 461, N1-(2-Aminoethyl)-4-(2-(aminomethyl)pyridin-4-yl)-3-(2H-tetrazol-5-yl)benzene-1,2-disulfonamide] | 50.4 | 42.1 | 4.77 | 1.563 | 6.25 | 3.125 | 12.5 | 3.125 | 4.00 |  |
| NCc1nc(-c2cccc(-c3ccc(S(=O)(=O)N[C@H]4CNC[C@H]4N)c(S(N)(=O)=O)c3-c3nn[nH]n3)c2)c[nH]1 [Example 462] | 1.29 | 0.0954 |  | 1.563 | 1.563 | 1.563 | 1.563 | 0.7813 | 2.00 | 0.227 |
| NCc1nc2cc(-c3ccc(S(=O)(=O)NC[C@H](O)CN)c(S(N)(=O)=O)c3-c3nn[nH]n3)ccc2s1 [Example 463, (R)—N1-(3-amino-2-hydroxypropyl)-4-(2-(aminomethyl)benzo[d]thiazol-5-yl)-3-(2H-tetrazol-5-yl)benzene-1,2-disulfonamide] | 0.325 | 0.145 | 0.091 | 0.7813 | 1.563 | 0.7813 | 0.7813 | 0.7813 | 1.00 |  |
| NCc1nc2cc(-c3ccc(S(=O)(=O)NC[C@H](O)CN)c(S(N)(=O)=O)c3-c3nn[nH]n3)ccc2[nH]1 [Example 464, (R)—N1-(3-amino-2-hydroxypropyl)-4-(2-(aminomethyl)-1H-benzo[d]imidazole-5-yl)-3-(2H-tetrazol-5-yl)benzene-1,2-disulfonamide] | 1.84 | 0.274 | 0.198 | 0.7813 | 1.563 | 1.563 | 0.7813 | 0.7813 | 1.00 |  |
